The text below walks through data of PMC9311059, “P‐Glycoprotein and Breast Cancer Resistance Protein Transporter Inhibition by Cyclosporine and Quinidine on the Pharmacokinetics of Oral Rimegepant in Healthy Subjects” (Clinical Pharmacology in Drug Development, 2022).

One data set relates to CYP3A4. Set-up: method as in ref 6, 7 = [6]; 6 PubChem [Internet]. Bethesda (MD): National Library of Medicine (US), National Center for Biotechnology Information; 2004‐. PubChem Compound Summary for CID 51049968, Rimegepant. https://pubchem.ncb || [7]; PMID 32058712; doi:10.1021/acs.jmedchem.9b01810; 7 Dubowchik GM , Conway CM , Xin AW . Blocking the CGRP pathway for acute and preventive treatment of migraine: the evolution of success . J Med Chem . 2020; 63 ( 13 ): 6600 ‐ 6623 . 32058712 10.1021. The conditions noted are these: in vitro, human liver microsomes and recombinant human CYP enzymes; cited from earlier work. Background: Liver microsomes are a subcellular fraction often used to study metabolism.

The subject of the next data set is BCRP. The arrangement: method as in ref 7 = [7]; PMID 32058712; doi:10.1021/acs.jmedchem.9b01810; 7 Dubowchik GM , Conway CM , Xin AW . Blocking the CGRP pathway for acute and preventive treatment of migraine: the evolution of success . J Med Chem . 2020; 63 ( 13 ): 6600 ‐ 6623 . 32058712 10.1021. The conditions noted are these: in vitro; cited from earlier work.

A short description of data set [1]: Part 2: pharmacokinetics of rimegepant 75 mg ODT alone or coadministered with quinidine 600 mg, 2-way crossover. Format: in vivo, human. Particulars: for AUC / Cmax: po, 75 mg; for Tmax: read-out: tmax, median (range). On the procedure:
This phase 1, open‐label, randomized, single‐dose, 2‐way crossover, 2‐part, drug‐drug interaction study was conducted at a single center (Syneos Health, Québec, Canada). Subjects were screened within 28 days preceding administration of study medication. In part 1, fasted subjects were randomly assigned to a single dose of rimegepant 75 mg ODT or a single dose of rimegepant 75 mg ODT coadministered with cyclosporine 200 mg (2 × 100‐mg capsules). […] Following the completion of part 1, an interim PK analysis and review of data were performed. […] In part 2, fasted subjects were randomly assigned to a single dose of rimegepant 75 mg ODT or a single dose of rimegepant 75 mg ODT coadministered with quinidine 600 mg (2 × 300‐mg tablets).
In part 1, subjects received 1 of the following treatments under fasting conditions: 1 oral dose of rimegepant 75 mg ODT (Catalent Pharma Solutions, Swindon, UK) or 1 oral dose of rimegepant 75 mg ODT coadministered with cyclosporine 200 mg (Novartis Pharmaceuticals Canada Inc., Dorval, Quebec, Canada). In part 2, subjects received 1 of the following treatments under fasting conditions: 1 oral dose of rimegepant 75 mg ODT alone or 1 oral dose of rimegepant 75 mg ODT coadministered with quinidine 600 mg (Sandoz Inc., West Princeton, New Jersey). In parts 1 and 2, the interval between treatments could not exceed 2 minutes.
For each treatment, subjects were confined from the morning of day −1 until after the 24‐hour postdose blood draw on day 2. Subjects returned for all subsequent blood draws. No food was allowed from at least 10 hours before dosing until at least 4 hours after dosing. Meals were standardized and similar in composition between periods. Except for water given with cyclosporine and quinidine, no fluids were allowed from 1 hour before dosing until 1 hour after dosing. Water was provided ad libitum at all other times. […] When appropriate, subjects were accompanied by a staff member while walking.
In each period, 20 blood samples for PK assessment were collected at the following time points: before dosing; 5, 10, 20, 30, 40, and 50 minutes after dosing; and 1, 1.5, 2, 2.5, 3, 4, 5, 6, 8, 12, 24 (day 2), 48 (day 3), and 72 (day 4) hours after dosing. […] Plasma samples were assayed for rimegepant using ultra‐performance liquid chromatography with tandem mass spectrometry detection (LC‐MS/MS). The quantifiable range was 10 to 5000 ng/mL. Plasma samples containing human ethylenediaminetetraacetic acid (EDTA) K2 plasma as an anticoagulant were processed using automated protein precipitation before LC‐MS/MS analysis. The internal standard was rimegepant‐^13C2d4. The validation was performed using an API 5000 LC/MS/MS system with Analyst software, version 1.6.3 (SCIEX, Framingham, Massachusetts). The pump flow was isocratic, with a flow rate set at 0.600 mL/min. The column was an Acquity UPLC BEH C18, 50×2.1 mm, 1.7 μm (Waters Corporation, Framingham, Massachusetts), which was maintained at a temperature of 60°C and contained Milli‐Q type water/acetonitrile with ammonium acetate and acetic acid. […] Incurred sample reanalysis was carried out on ≈10% of randomly selected samples.
The effects of cyclosporine (part 1) or quinidine (part 2) on the single‐dose PK of rimegepant were evaluated using general linear model procedures in SAS (SAS Institute, Cary, North Carolina). In these evaluations, analysis of variance (ANOVA) model was performed on untransformed tmax, terminal elimination rate constant, and t1/2el and on log‐transformed AUC0‐t, AUC0‐inf, and Cmax at the alpha level of .05. The model included treatment, sequence, and period as fixed effects, and subject nested within sequence as a random effect. Intra‐ and intersubject coefficient of variation were estimated.

For data set [2], the system named is organic anion transporting polypeptide 1B3. The arrangement: method as in ref 7 = [7]; PMID 32058712; doi:10.1021/acs.jmedchem.9b01810; 7 Dubowchik GM , Conway CM , Xin AW . Blocking the CGRP pathway for acute and preventive treatment of migraine: the evolution of success . J Med Chem . 2020; 63 ( 13 ): 6600 ‐ 6623 . 32058712 10.1021. Particulars: in vitro; cited from earlier work.

Setting [3] is: by quinidine 600 mg, single dose rimegepant 75 mg ODT, vs rimegepant alone.
Setting [4] is: coadministration with quinidine 600 mg, rimegepant 75 mg.

Values joined by “and” are separate entries in the source; they are usually repeats but may differ in a detail not shown here. Equal values may be shown once. Read-outs that look alike come from different tables or passages of the source.

By Cmax is commonly meant the peak of the concentration-time curve. As a reminder, the Tmax is the time from dosing to the highest level. `N[C@@H]1c2cccnc2[C@H](OC(=O)N2CCC(n3c(=O)[nH]c4ncccc43)CC2)CC[C@H]1c1cccc(F)c1F` [Rimegepant]: the metabolising enzyme result in the data set on CYP3A4 was “primarily metabolized by CYP3A4”. For the same compound, the “substrate of BCRP transporter” value with BCRP is “substrate”. Further, the “increase in rimegepant AUC0‐inf” value in data set [1] (setting [3]) was 54.8% and 55%. Moreover, in data set [1] (setting [3]), the “increase in rimegepant Cmax” value was 66.9% and 67%. In data set [1] (setting [4]), the “rimegepant AUC0‐inf geometric mean ratio (90% CI) versus rimegepant alone” value was 1.55 (1.40‐1.72). For the same compound, the “rimegepant Cmax geometric mean ratio (90% CI) versus rimegepant alone” value in data set [1] (setting [4]) is 1.67 (1.46‐1.91). The AUC in data set [1] (human, plasma, part 2, rimegepant 75 mg ODT alone, single oral dose, fasted, plasma, N = 12, read-out: AUC0‐inf, geometric least squares mean) was found to be 4410 ng·h/mL; in data set [1] (human, plasma, part 2, rimegepant 75 mg ODT alone, single oral dose, fasted, plasma, N = 12, read-out: AUC0‐t, geometric least squares mean), 4400 ng·h/mL; in data set [1] (human, plasma, part 2, rimegepant ODT 75 mg alone, single oral dose, N 12, read-out: AUC0‐inf, arithmetic mean (percent coefficient of variation)), 4540 ng·h/mL; in data set [1] (human, plasma, part 2, rimegepant ODT 75 mg alone, single oral dose, N 12, read-out: AUC0‐t, arithmetic mean (percent coefficient of variation)) it was 4520 ng·h/mL. In addition, the highest concentration (Cmax) was found to be 797 ng/mL in data set [1] (human, plasma, part 2, rimegepant 75 mg ODT alone, single oral dose, fasted, plasma, N = 12, read-out: Cmax, geometric least squares mean) and 829 ng/mL in data set [1] (human, plasma, part 2, rimegepant ODT 75 mg alone, single oral dose, N 12, read-out: Cmax, arithmetic mean (percent coefficient of variation)). The Tmax was 1.5 h in data set [1] (human, plasma, part 2, rimegepant ODT 75 mg alone, single oral dose, N 12) and 2.8 h in data set [1] (human, plasma, part 2, rimegepant ODT 75 mg coadministered with quinidine 600 mg, single oral dose, N 12). Also, the half-life in data set [1] (human, plasma, part 2, rimegepant ODT 75 mg alone, single oral dose, N 12, read-out: t½el, arithmetic mean (percent coefficient of variation) (converted)) is 8.56 h. For the same compound, the “CL/F, arithmetic mean (percent coefficient of variation)” value in data set [1] (part 2, rimegepant ODT 75 mg alone, single oral dose, N 12) is given as 17.39 (24.68) L/h. In addition, the “difference in geometric mean t1/2el between treatments” value in data set [1] (part 2, rimegepant with quinidine vs rimegepant alone) is at most 20%. Moreover, in data set [2], the “substrate of organic anion transporting polypeptide 1B3” value is “not a substrate”.
